According to a melting point compilation (Tetko et al.):

Row | Compound | melting point [°C]
1 | Cc1ccc(C)c(-n2ccnc2SCC(=O)O)c1 | 128 to 130
2 | O=C(O)CCc1cc(Br)ccc1F | 84 to 86
3 | CC(C(=O)O)n1cccn1 (stereo unspecified) | 96 to 98
4 | Nc1cnncc1Cl | 79 to 81
5 | COC(=O)c1c(O)c(Cl)cc(Cl)c1Cl | 113 to 115
6 | ON=Cc1ccc(Oc2ncccn2)cc1 | 177 to 179
7 | CCOC(=O)c1c(-c2ccccc2)csc1N=CN(C)C | 95 to 97
8 | CCCc1ccc(-c2ccc(N)cc2)cc1 | 64 to 66
9 | COC(=O)N(C)c1ccc([N+](=O)[O-])cc1 | 108 to 110
10 | O=C(CCl)Nc1ccnn1C1CCCC1 | 76 to 78
11 | O=C(O)/C=C/c1cc(Cl)c2c(c1)OCCCO2 | 178 to 180
12 | C1CCC(c2nnn[nH]2)C1 | 119 to 121
13 | NC(=O)c1csc(C(=O)CCl)c1 | 175 to 177
14 | Nc1cc(I)ccc1O | 135 to 137
15 | CCN(CC)S(=O)(=O)c1ccc(NCCO)c(N)c1 | 157 to 159
16 | CC(=O)COc1ccc2cc(Br)ccc2c1 | 106 to 108
17 | N#CC(N)c1ccc(OCc2ccccc2)cc1 (stereo unspecified) | 111 to 113
18 | O=C(O)c1cccc(N2C(=O)CCC2=O)c1 | 237 to 239
19 | O=C(O)c1nccnc1C(=O)N1CCOCC1 | 185 to 187
20 | CCn1c(S)nnc1C1CC1 | < 17
21 | COc1ccc(-c2nc3c(s2)C(=O)CCC3)cc1 | 112 to 114
22 | ClCc1nc(-c2cccs2)n[nH]1 | 159 to 161
23 | CC(=O)Nc1cc(F)ccc1-c1csc(N)n1 | 127 to 129
24 | Nc1ccc2[nH]c(C(F)F)nc2c1 | 129 to 131
25 | O=C(O)CCCn1cc(Br)cn1 | 94 to 96

Row | Compound | melting point [°C]
26 | OC(c1c(F)cncc1Br)C1CCCCC1 (stereo unspecified) | 76 to 78
27 | CN(C)S(=O)(=O)c1ccnc(N)c1 | 148 to 150
28 | CC(C)c1ccc(CCNC(=O)CCl)cc1 | 54 to 56
29 | CS(=O)(=O)c1ccc(OCCC(=O)O)cc1 | 108 to 110
30 | COc1c(C)cnc(Cn2ccc(N)n2)c1C | 59 to 61
31 | Cc1nn(-c2ccc(F)cc2F)c(C)c1C(=O)O | 229 to 231
32 | O=Cc1cnn(CC(F)(F)F)c1 | 56 to 58
33 | CC(C)CCNS(=O)(=O)Cc1ccc(N)cc1 | 111 to 113
34 | O=C(O)c1cc(/C=C/c2cccc(C(F)(F)F)c2)nc2ccc(Br)cc12 | 310 to 312
35 | COCCOc1cc(C(=O)O)nc2ccccc12 | 179 to 181
36 | NCCCN1CCC(C(N)=O)CC1 | 94 to 96
37 | CC(Sc1ccc(Br)cc1)C(=O)O (stereo unspecified) | 113 to 115
38 | O=C(O)c1ccccc1SCC(F)(F)F | 169 to 171
39 | O=c1c2ccccc2nc(S)n1Cc1ccc(Cl)cc1 | 221 to 223
40 | O=C(O)CCNS(=O)(=O)c1cccc(Br)c1 | 146 to 148
41 | O=C1CC=NN1c1ccc(F)cc1 | 121 to 123
42 | O=C(O)c1cnc(C2CCCO2)s1 (stereo unspecified) | 139 to 141
43 | CCOC(=O)C(=O)Cc1ccc2ccccc2n1 | 130 to 132
44 | CC(C)(C)OC(=O)NC(CN)CN | 58 to 60
45 | O=C(O)c1c2c(nc3ccccc13)C(=Cc1ccccc1)CC2 | 279 to 281
46 | CNc1ccc(OCCOC)cc1 | 59 to 61
47 | CC(C)(C(=O)O)c1ccccc1Cl | 111 to 113
48 | CCCC1CCc2nc(N)sc2C1 (stereo unspecified) | 78 to 80
49 | NC(=O)N1CCC(N)CC1 | 64 to 66
50 | CCn1c(C)c(C(=O)O)c2cc(OC)ccc21 | 173 to 175

Row | Compound | melting point [°C]
51 | Nc1cc(C(=O)O)ccc1-n1cnnc1 | 334 to 336
52 | CC1CCc2c(sc3nc(S)nc(S)c23)C1 (stereo unspecified) | 337 to 339
53 | CON(C)S(=O)(=O)c1cc([N+](=O)[O-])ccc1Cl | 123 to 125
54 | CCOC=C1C(=O)N(c2ccccn2)C(=O)c2ccccc21 | 231 to 233
55 | NCc1cc(OCC(F)F)ccn1 | 71 to 73
56 | Nc1cc(OCC(F)(F)F)cc(OCC(F)(F)F)c1 | 50 to 52
57 | NC(=O)c1cn[nH]c1 | 223 to 225
58 | O=Cc1c(Cl)nc2ccccn12 | 124 to 126
59 | CCOC(=O)C(=O)CC(=O)c1cc(Cl)ccc1Cl | 76 to 78
60 | O=C(COc1ccccc1C(=O)O)Nc1ccccc1F | 197 to 199
61 | COC(=O)c1cc(C)ccc1N | 58 to 60
62 | CC(C)n1cc2cc(N)ccc2n1 | 105 to 107
63 | Cc1cc(NC(=O)CN2CCNCC2)no1 | 114 to 116
64 | O=c1[nH]c(S)nc2ccsc12 | 364 to 366
65 | COc1ccccc1-c1nn(Cc2ccccc2)cc1C(=O)O | 152 to 154
66 | CCOC(=O)c1oc(NC)nc1C | 103 to 105
67 | Nc1nnc(SCc2cccs2)s1 | 141 to 143
68 | COC(=O)c1sc(Cl)nc1Cl | 54 to 56
69 | Cn1cc(C(=O)O)c(-c2cccnc2)n1 | 201 to 203
70 | COc1ncccc1C(N)=S | 114 to 116
71 | O=C(CCl)NC(Cc1ccccc1)c1ccccc1 (stereo unspecified) | 219 to 221
72 | Nc1ccccc1NC(=O)c1ccc2ccccc2n1 | 151 to 153
73 | O=C(CCl)Nc1ccc(S(=O)(=O)N2CCCC2)cc1 | 185 to 187
74 | Cc1nn(C)cc1C(=O)O | 190 to 192
75 | O=S(=O)(CCCl)c1cccc(Br)c1 | 63 to 65

Row | Compound | melting point [°C]
76 | COc1cc(C#N)cc(Cl)c1OC(C)C | 84 to 86
77 | NC(=S)c1cnn(-c2ccccc2)c1 | 181 to 183
78 | Cc1nc(N)sc1-c1ccccc1 | 163 to 165
79 | c1cnc2c(c1)CCN2 | 79 to 81
80 | O=C(CCl)N1CCN(C(=O)C2COc3ccccc3O2)CC1 (stereo unspecified) | 199 to 201
81 | CCOc1ccc(CCC(=O)O)cc1 | 102 to 104
82 | Cc1sc2nc(N)[nH]c(=O)c2c1C | 353 to 355
83 | CN1CC(C(=O)O)Cc2ccccc21 (stereo unspecified) | 209 to 211
84 | CC(C)(C)OC(=O)N1CCC(I)CC1 | 44 to 46
85 | N#Cc1ccnc(-n2cncn2)c1 | 149 to 151
86 | COc1ccc2nc(Cl)ccc2c1 | 103 to 105
87 | O=C1CCCc2c1[nH]c1ccc(Br)cc21 | 189 to 191
88 | O=C(O)c1ccnc(Cl)c1F | 194 to 196
89 | Clc1cc2nc[nH]c2nc1Cl | 119 to 121
90 | CC(=O)c1ccc2c(c1)Nc1ccccc1S2 | 180 to 185
91 | CC(=O)Nc1cnc(NC(C)=O)s1 | 245 to 247
92 | CC1(C)NC(=O)N(Cc2ccc(Cl)nc2)C1=O | 127 to 129
93 | CS(=O)(=O)c1cccc(C(=O)Cl)c1 | 85 to 87
94 | O=C(O)Cn1cc(C2CC2)nn1 | 183 to 185
95 | COC(=O)c1ccc(I)cn1 | 129 to 131
96 | Ic1ccc(OCc2ccc3ncccc3c2)cc1 | 161 to 163
97 | Nc1c(Cl)ncnc1N1CCCC1 | 103 to 105
98 | NC(=O)c1ccc(N2CCNCC2)nc1 | 195 to 197
99 | Nc1nccnc1CO | 115 to 117
100 | CCOC(=O)c1cnn2cccnc12 | 117 to 119

Row | Compound | melting point [°C]
101 | COCCC(=O)Nc1ccc(F)cc1C(=O)O | 110 to 112
102 | COCCOc1ccc(C(=O)O)cc1OC | 149 to 151
103 | CC(=N\O)/C(C)=N/O | 240 to 241
104 | Cc1[nH]n(C(N)=S)c(=O)c1CCO | 153 to 155
105 | CCCn1nc(C(=O)O)ccc1=O | 132 to 134
106 | Nc1ccc2c(c1)CCC(=O)N2Cc1ccc(Cl)cc1 | 142 to 144
107 | CCN(CC)c1ccc(S(=O)(=O)N2CCOCC2)cc1NC(=O)CCl | 99 to 101
108 | COc1ccc(C(=O)O)cc1OCc1ccccn1 | 219 to 221
109 | CC1(c2ccc(OC(F)F)cc2)NC(=O)NC1=O (stereo unspecified) | 141 to 143
110 | O=C(CCCl)Nc1ccc([N+](=O)[O-])cc1 | 171 to 173
111 | O=C(O)CC=Cc1ccc(F)cc1 | 111 to 113
112 | Cn1ncc2c(=O)[nH]c(Cl)nc21 | 268 to 270
113 | Nc1ncc(-c2ccccc2F)s1 | 149 to 151
114 | COc1ccc(C(CNC(=O)OCC(F)(F)F)N2CCCC2)cc1 (stereo unspecified) | 55 to 57
115 | CSc1nn(C)c2nc[nH]c(=O)c12 | 251 to 253
116 | Cc1cc(C(=O)O)nn1-c1ccc(Br)cc1 | 211 to 213
117 | CN(C)C(=O)c1cc(N)ccc1Cl | 158 to 160
118 | Cc1oc(C(=O)O)cc1S(N)(=O)=O | 225 to 227
119 | CSc1ccc2cc(CCl)c(Cl)nc2c1 | 151 to 153
120 | COc1ccc(C(=O)Nc2ccc(C(=O)O)s2)cc1 | 198 to 200
121 | Sc1ccc2c(c1)OCCCO2 | 41 to 43
122 | OCCC1CSCCN1 (stereo unspecified) | 86 to 88
123 | O=C(O)c1ccc(Cl)c(S(=O)(=O)Nc2ccccc2Cl)c1 | 213 to 215
124 | O=[N+]([O-])c1cc(Br)ccc1I | 84 to 86
125 | CN(C)S(=O)(=O)c1cccc(C#N)c1 | 128 to 130

Row | Compound | melting point [°C]
126 | O=C1CCCN1c1ccccc1[N+](=O)[O-] | 77 to 79
127 | CC(C)NS(=O)(=O)c1cccc(C(=O)O)c1 | 162 to 164
128 | CC1CN(Cc2ccccc2N)CC(C)O1 (stereo unspecified) | 93 to 95
129 | BrCc1ccc2c(c1)COC2 | 49 to 51
130 | O=C(c1ccccc1)c1ccc(Cl)cc1O | 75 to 77
131 | COc1ccc2oc(C=O)cc2c1 | 59 to 61
132 | Cc1cccc(Oc2ccc(Cl)cc2N)c1 | 93 to 97
133 | COC(=O)C(NS(C)(=O)=O)C(C)C (stereo unspecified) | 46 to 48
134 | O=C(O)c1cc2c(F)cc(Br)cc2[nH]1 | 230 to 232
135 | CC(=O)c1ccc(O)c(CN2CCOCC2)c1 | 70 to 72
136 | Cn1c(C=O)nc2cc(C(F)(F)F)ccc21 | 111 to 113
137 | CS(=O)(=O)c1ccsc1C(=O)O | 179 to 181
138 | N#Cc1ccsc1NC(=O)CCl | 160 to 170
139 | CS/C(=N\C#N)N1CCOCC1 | 126 to 128
140 | CC(=O)c1cccc(-n2cnnn2)c1 | 155 to 157
141 | CC(O)c1cc2ccccc2o1 (stereo unspecified) | < 17
142 | NC1(c2ccc(Cl)cc2)CCOCC1 | 50 to 52
143 | CC(=O)Oc1cc(C(=O)O)cc(OC(C)=O)c1OC(C)=O | 163 to 165
144 | Cc1ccc(-c2csc(CC(N)=S)n2)cc1 | 117 to 119
145 | O=C(c1cc(F)ccc1F)c1ccccc1Cl | 67 to 69
146 | Cc1nc(-c2cccnc2)[nH]c(=O)c1CCC(=O)O | 279 to 281
